Source: PubChem BioAssay AID330 (DTP/NCI, 2004)
Where “and” joins values, the source holds several entries; their conditions need not be identical. Identical values can stand only once. Toxic doses and inconclusive results are not listed. How the source made its calls: active means survival T/C of 150% or more; inactive means T/C below 125% in these data.

Tested on: P388 leukemia ip, CD2F1 mice, survival T/C
Assay: NCI In Vivo Anticancer Drug Screen. Data for tumor model P388 Leukemia (intraperitoneal) in CD2F1 (CDF1) mice
Settings: endpoint: median survival time, higher = longer survival
Summary of the method: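 Mice carrying the transplanted tumor received test compound or vehicle. Survival was recorded in each group, and the value is the treated-group measurement divided by that of the vehicle-treated control group.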

[1] = dose: 100.0 mg/kg/injection, schedule: Q04DX003 (ip), vehicle: saline with Tween-80
[2] = dose: 200.0 mg/kg/injection, schedule: Q04DX003 (ip), vehicle: saline with Tween-80
[3] = dose: 100.0 mg/kg/injection, schedule: Q01DX009 (ip), vehicle: saline
[4] = dose: 60.0 mg/kg/injection, schedule: Q01DX005 (ip), vehicle: saline with Tween-80
[5] = dose: 120.0 mg/kg/injection, schedule: Q01DX005 (ip), vehicle: saline with Tween-80
[6] = dose: 240.0 mg/kg/injection, schedule: Q01DX005 (ip), vehicle: saline with Tween-80
[7] = dose: 50.0 mg/kg/injection, schedule: Q01DX005 (ip), vehicle: Klucel (hydroxypropylcellulose) (HPC)
[8] = dose: 100.0 mg/kg/injection, schedule: Q01DX009 (ip), vehicle: saline with Tween-80
[9] = dose: 200.0 mg/kg/injection, schedule: Q01DX009 (ip), vehicle: saline with Tween-80
[10] = dose: 400.0 mg/kg/injection, schedule: Q01DX009 (ip), vehicle: saline with Tween-80
[11] = dose: 50.0 mg/kg/injection, schedule: Q01DX009 (ip), vehicle: Klucel (hydroxypropylcellulose) (HPC)
[12] = dose: 100.0 mg/kg/injection, schedule: Q01DX009 (ip), vehicle: Klucel (hydroxypropylcellulose) (HPC)
[13] = dose: 50.0 mg/kg/injection, schedule: Q01DX009 (ip), vehicle: saline
[14] = dose: 50.0 mg/kg/injection, schedule: Q01DX009 (ip), vehicle: saline with Tween-80
[15] = dose: 100.0 mg/kg/injection, schedule: Q01DX005 (ip), vehicle: Klucel (hydroxypropylcellulose) (HPC)
[16] = dose: 200.0 mg/kg/injection, schedule: Q01DX005 (ip), vehicle: Klucel (hydroxypropylcellulose) (HPC)

Measured: T/C

O=C(Nc1ccccc1)c1cc(Cl)ccc1O
inactive: [1] 100 % of control | [2] 100 % of control | dose: 400.0 mg/kg/injection, schedule: Q04DX003 (ip), vehicle: saline with Tween-80 100 % of control

CC(C(C(=O)N1CCCCC1)N1CCCCC1)N1CCCCC1 (stereo unspecified)
inactive: [3] 99 % of control | dose: 200.0 mg/kg/injection, schedule: Q01DX009 (ip), vehicle: saline 87 % of control | dose: 400.0 mg/kg/injection, schedule: Q01DX009 (ip), vehicle: saline 97 % of control

COc1ccc2c(c1)CCC(c1ccccc1)=C2c1ccc(OCCN2CCCC2)cc1
inactive: dose: 6.0 mg/kg/injection, schedule: Q01DX005 (ip), vehicle: Klucel (hydroxypropylcellulose) (HPC) 102 % of control | dose: 12.0 mg/kg/injection, schedule: Q01DX005 (ip), vehicle: Klucel (hydroxypropylcellulose) (HPC) 105 % of control | dose: 24.0 mg/kg/injection, schedule: Q01DX005 (ip), vehicle: Klucel (hydroxypropylcellulose) (HPC) 105 % of control | dose: 48.0 mg/kg/injection, schedule: Q01DX005 (ip), vehicle: Klucel (hydroxypropylcellulose) (HPC) 103 % of control

COc1cccc(CN2C(=O)NC(C)(C)C2O)c1 (stereo unspecified)
inactive: [4] 99 % of control | [5] 101 % of control | [6] 101 % of control

Cc1cc2nc3c(C4OCC(O)C4O)nn(-c4ccc(F)cc4)c3nc2cc1C (stereo unspecified)
inactive: dose: 12.5 mg/kg/injection, schedule: Q01DX005 (ip), vehicle: Klucel (hydroxypropylcellulose) (HPC) 95 % of control | dose: 25.0 mg/kg/injection, schedule: Q01DX005 (ip), vehicle: Klucel (hydroxypropylcellulose) (HPC) 90 % of control | [7] 88 % of control

COc1cccc2c1C(=O)c1c(O)c3c(c(O)c1C2=O)C[C@@H](C(C)=O)C[C@@H]3OC1CC(N)C(O)C(C)O1 (stereo partly specified)
inactive: dose: 6.25 mg/kg/injection, schedule: Q04DX003 (ip), vehicle: water 109 % of control | dose: 12.5 mg/kg/injection, schedule: Q04DX003 (ip), vehicle: water 120 % of control | dose: 25.0 mg/kg/injection, schedule: Q04DX003 (ip), vehicle: water 113 % of control | dose: 50.0 mg/kg/injection, schedule: Q04DX003 (ip), vehicle: water 120 % of control | dose: 100.0 mg/kg/injection, schedule: Q04DX003 (ip), vehicle: water 93 % of control

CCCCc1c(O)c2c(=O)n(C)c(=O)n3c4ccccc4n(c1=O)c23
inactive: [4] 100 % of control | [5] 89 % of control | [6] 90 % of control

Cc1ccc(OC(=O)c2ccc3ccccc3n2)cc1
inactive: dose: 100.0 mg/kg/injection, schedule: Q04DX002 (ip), vehicle: saline with Tween-80 101 % of control | dose: 200.0 mg/kg/injection, schedule: Q04DX002 (ip), vehicle: saline with Tween-80 94 % of control | dose: 400.0 mg/kg/injection, schedule: Q04DX002 (ip), vehicle: saline with Tween-80 94 % of control

O=C(Nc1cccc2nsnc12)c1ccc(C(=O)Nc2cccc3nsnc23)cc1
inactive: dose: 0.46 mg/kg/injection, schedule: Q01DX005 (ip), vehicle: Klucel (hydroxypropylcellulose) (HPC) 97 % of control | dose: 0.93 mg/kg/injection, schedule: Q01DX005 (ip), vehicle: Klucel (hydroxypropylcellulose) (HPC) 96 % of control | dose: 1.87 mg/kg/injection, schedule: Q01DX005 (ip), vehicle: Klucel (hydroxypropylcellulose) (HPC) 98 % of control | dose: 30.0 mg/kg/injection, schedule: Q01DX005 (ip), vehicle: Klucel (hydroxypropylcellulose) (HPC) 86 % of control | dose: 240.0 mg/kg/injection, schedule: Q01DX005 (ip), vehicle: Klucel (hydroxypropylcellulose) (HPC) 98 % of control

OCCc1cc[nH]c1
inactive: [8] 104 % of control | [9] 104 % of control | [10] 95 % of control

O=C(CN1CCCCC1)Nc1nc(-c2ccc(Cl)cc2)cs1
inactive: dose: 6.25 mg/kg/injection, schedule: Q01DX005 (ip), vehicle: saline with Tween-80 100 % of control | dose: 12.5 mg/kg/injection, schedule: Q01DX005 (ip), vehicle: saline with Tween-80 94 % of control | dose: 25.0 mg/kg/injection, schedule: Q01DX005 (ip), vehicle: saline with Tween-80 89 % of control

CCN1C2=NCCN2C(=O)c2ccccc21
inactive: [11] 97 % of control | [12] 97 % of control

COC(=O)CCCOCCCC(=O)OC
inactive: [13] 95 % of control | [3] 99 % of control

CCCCCCCCCCCCCCCCCC(=O)[Se][Se]C(=O)CCCCCCCCCCCCCCCCC
inactive: dose: 50.0 mg/kg/injection, schedule: Q01DX009 (ip), vehicle: saline + Tween-80 + alcohol 99 % of control | dose: 100.0 mg/kg/injection, schedule: Q01DX009 (ip), vehicle: saline + Tween-80 + alcohol 104 % of control | dose: 200.0 mg/kg/injection, schedule: Q01DX009 (ip), vehicle: saline + Tween-80 + alcohol 104 % of control

CC(=O)c1ccc(OCc2ccccc2)c(OCc2ccccc2)c1
inactive: [14] 115 % of control | [8] 106 % of control | [9] 95 % of control | [10] 93 % of control

Cc1ccc2c(c1)sc1nnc(Cl)n12
inactive: [11] 100 % of control | [12] 94 % of control | dose: 200.0 mg/kg/injection, schedule: Q01DX009 (ip), vehicle: Klucel (hydroxypropylcellulose) (HPC) 88 % of control

CC(=O)C1C(=O)OC(C)=C(C(=O)O)C1=O (stereo unspecified)
inactive: dose: 50.0 mg/kg/injection, schedule: Q04DX003 (ip), vehicle: saline with Tween-80 109 % of control | [1] 109 % of control | [2] 100 % of control

O=C1C=CC(=O)C(c2ccccc2)=C1
inactive: [7] 100 % of control | [15] 105 % of control | [16] 112 % of control

O=C(NCCNC(=O)[C@H]1CCCN1)[C@H]1CCCN1
inactive: dose: 60.0 mg/kg/injection, schedule: Q01DX005 (ip), vehicle: saline 98 % of control | dose: 120.0 mg/kg/injection, schedule: Q01DX005 (ip), vehicle: saline 91 % of control | dose: 240.0 mg/kg/injection, schedule: Q01DX005 (ip), vehicle: saline 93 % of control

S=C1NCN(CC2CC2)CN1
inactive: [4] 97 % of control | [5] 96 % of control | [6] 94 % of control

CN(C)c1ccc(/C=C2\C=Cc3ccccc32)cc1Cl
inactive: dose: 6.25 mg/kg/injection, schedule: Q01DX009 (ip), vehicle: saline 101 % of control | dose: 12.5 mg/kg/injection, schedule: Q01DX009 (ip), vehicle: saline 87 % of control | dose: 25.0 mg/kg/injection, schedule: Q01DX009 (ip), vehicle: saline 94 % of control | [13] 94 % of control

O=c1oc(-c2ccccc2)cc2ccccc12
inactive: [7] 100 % of control and 105 % of control | [15] 99 % of control and 109 % of control | [16] 99 % of control and 98 % of control | dose: 400.0 mg/kg/injection, schedule: Q01DX005 (ip), vehicle: Klucel (hydroxypropylcellulose) (HPC) 100 % of control and 93 % of control

O=S1(c2ccccc2)=NC(=S)Nc2ccccc21 (stereo unspecified)
inactive: [14] 111 % of control | [8] 102 % of control | [9] 98 % of control

CC1(C(Cl)(Cl)Cl)C=CC(=NO)C=C1 (stereo unspecified)
inactive: [7] 110 % of control | [15] 107 % of control | [16] 110 % of control

COc1ccc(CC2CCCNC2C(=O)O)cc1 (stereo unspecified)
inactive: [14] 114 % of control | [8] 101 % of control | [9] 99 % of control
